Columns and labels:
[1] = Freeze-thaw stability of DBV in plasma samples
Protocol: Stability of DBV was assessed by comparing the nominal concentrations of LQC, MQC and HQC with those observed under two different conditions: • sample extracts kept on board at 10 °C for 24 h and frozen at −80 °C for 24 h; • plasma samples analyzed after three complete freeze and thaw cycles (from −80 °C to 25 °C).
Stability in the above operating conditions was deemed suitable if DBV concentrations were within ±15% of the nominal value.

[2] = Stability of DBV in sample extracts (autosampler, freezer); assay type: physicochemical; conditions: for Avg Accuracy (Bias%): vs nominal concentration, LC-MS/MS
[3] = human, in vivo
Protocol: Plasma samples (3 μL) were added to 47 μL of ultrapure water to achieve a dilution factor of 17 and then mixed with 150 μL of the IS-methanol solution (1 mg/L DBV-d6). The mixture was vortexed for 15 s and then centrifuged at room temperature at 13,000 rpm for 5 min. Subsequently, 50 µL of the clear supernatant was transferred to an autosampler vial, and a volume of 3 µL was injected into the LC-MS/MS system (Figure 2).
The presented ITD LC-MS/MS method was tested for measuring DBV concentrations in patients receiving DBV for the treatment of long-term subacute or chronic documented Gram-positive infections (namely osteoarticular infections, endocarditis, and endovascular prosthetic infections). In our study, DBV treatment was started according to the internal protocol consisting of two 1500 mg doses one week apart. Requirement for additional doses was assessed by the treating physician after at least four weeks according to the underlying clinical conditions of each patient. […] The number of samples assessed was 520. Samples for Dalbavancin TDM were usually collected at predefined timeframes between 21 and 35 days after first administration. […] Blood samples respected the cold chain delivery and were processed either immediately after delivery or after freezing at −80 °C until analysis, depending on case-by-case.

[4] = human; cited from earlier work

Compound: CN[C@H]1C(=O)N[C@@H]2Cc3ccc(cc3)Oc3cc4cc(c3O[C@@H]3O[C@H](C(=O)O)[C@@H](O)[C@H](O)[C@H]3NC(=O)CCCCCCCCC(C)C)Oc3ccc(cc3Cl)[C@@H](O)[C@@H]3NC(=O)[C@H](NC(=O)[C@@H]4NC(=O)[C@@H](NC2=O)c2cc(cc(O)c2Cl)Oc2cc1ccc2O)c1ccc(O)c(c1)-c1c(O[C@H]2O[C@H](CO)[C@@H](O)[C@H](O)[C@@H]2O)cc(O)cc1[C@@H](C(=O)NCCCN(C)C)NC3=O [DBV, Dalbavancin]
- change of DBV concentrations after freeze and thaw cycles [1]: decreased
- Avg Accuracy (Bias%) ([1]; human plasma samples, 1 freeze-thaw cycle (−80 °C to 25 °C), Low QC 7 mg/L, vs nominal, LC-MS/MS): 14.8%
- Avg Accuracy (Bias%) ([2]; extract (MeOH:H2O protein precipitation of plasma) kept in autosampler at 10 °C, post 24 h, Low QC 7 mg/L, acceptance ±15%): 22.1%
- Avg Accuracy (Bias%) ([2]; extract in freezer (−80 °C) post 24 h, High QC 280 mg/L): 12.3%
- Avg Accuracy (Bias%) ([2]; extract in freezer (−80 °C) post 24 h, Low QC 7 mg/L): 16.8%
- Avg Accuracy (Bias%) ([2]; extract in freezer (−80 °C) post 24 h, Medium QC 70 mg/L): 6.7%
- Avg Accuracy (Bias%) ([2]; extract kept in autosampler at 10 °C, post 24 h, High QC 280 mg/L): 14.8%
- Avg Accuracy (Bias%) ([2]; extract kept in autosampler at 10 °C, post 24 h, Medium QC 70 mg/L): 9.4%
- time for which autosampler extracts were stable ([2]; extracts kept at 10 °C): at least 24 h
- DBV concentration, first quartile [3]: 11 mg/L
- DBV concentration, maximum [3]: 77.0 mg/L
- DBV concentration, minimum [3]: 2.0 mg/L
- DBV concentration, third quartile [3]: 31.8 mg/L
- DBV concentration, median ([3]; 1500 mg): 18 mg/L
- plasma protein binding [4]: very high

From article PMC9962402, “Fast and Simple Liquid Chromatography-Isotope Dilution Tandem Mass Spectrometry Method for Therapeutic Drug Monitoring of Dalbavancin in Long-Term Treatment of Subacute and/or Chronic Infections” (Pharmaceutics, 2023)
